≈ marks a conversion by molar mass, not a printed value.
Experiments:
dengue virus type 1 [1] = assay: Antiviral activity against DENV1 infected in African green monkey Vero cells assessed as virus yield reduction after 48 hrs by plaque assay; format: functional, organism-based
dengue virus type 4 [2] = assay: Antiviral activity against DENV4 infected in African green monkey Vero cells assessed as virus yield reduction after 48 hrs by plaque assay; format: functional, organism-based
dengue virus type 2 [3] = assay: Antiviral activity against DENV2 infected in African green monkey Vero cells assessed as virus yield reduction after 48 hrs by plaque assay; format: functional, organism-based
dengue virus type 3 [4] = assay: Antiviral activity against DENV3 infected in African green monkey Vero cells assessed as virus yield reduction after 48 hrs by plaque assay; format: functional, organism-based
dengue virus type 2 [5] = assay: Antiviral activity against DENV2 16681 infected in HEK293 cells after 72 hrs by luciferase reporter gene assay; format: functional, organism-based; details: Dengue virus, 16681, HEK293, 72 h
dengue virus type 2 [6] = assay: Antiviral activity against DENV2 assessed as reduction in plaque formation; format: functional, organism-based
dengue virus type 3 [7] = assay: Antiviral activity against DENV3 5532 infected in human Huh7.5 cells after 72 hrs by flow cytometric analysis; format: functional, organism-based; details: Dengue virus, 5532, Huh7.5, 72 h
dengue virus type 2 [8] = assay: Antiviral activity against DENV2 ICC265 infected in human Huh7.5 cells after 72 hrs by flow cytometric analysis; format: functional, organism-based; details: ICC265, Huh7.5, 72 h
dengue virus type 4 [9] = assay: Antiviral activity against DENV4 TVP360 infected in human Huh7.5 cells after 72 hrs by flow cytometric analysis; format: functional, organism-based; details: TVP360, Huh7.5, 72 h
dengue virus type 1 [10] = assay: Antiviral activity against DENV1 FGA/89 infected in human Huh7.5 cells after 72 hrs by flow cytometric analysis; format: functional, organism-based; details: FGA/89, Huh7.5, 72 h
dengue virus type 1 [11] = assay: Antiviral activity against DENV1 infected in human Huh7 cells assessed as reduction in viral yield after 48 hrs by MTT assay; format: functional, organism-based; details: Huh-7, 48 h, pooled result: one value given for 4 cell lines, strains, targets or settings
dengue virus type 2 [12] = assay: Antiviral activity against DENV2 infected in human HepG2 cells; format: functional, organism-based
dengue virus type 2 [13] = assay: Virucidal activity against DENV2 infected in human HeLa cells; format: functional, organism-based
dengue virus type 2 [14] = assay: Virucidal activity against DENV2 infected in human HepG2 cells; format: functional, organism-based
dengue virus type 1 [15] = assay: Antiviral activity against DENV1 infected in human A549 cells after 3 days by focus reduction assay; format: functional, organism-based; details: A549, 72 h
dengue virus type 2 [16] = assay: Antiviral activity against DENV2 infected in human Huh-7 cells; format: functional, organism-based
dengue virus type 2 [17] = assay: Antiviral activity against DENV2 16681 infected in human Huh7 cells by luciferase reporter gene assay; format: functional, organism-based; details: Dengue virus, 16681, Huh-7
dengue virus type 2 [18] = assay: Antiviral activity against DENV2 infected in […] BHK-15 cells after 48 hrs by luciferase reporter gene assay; format: functional, organism-based; details: BHK15, 48 h
dengue virus type 3 [19] = assay: Antiviral activity against DENV3 infected in human HepG2 cells assessed as reduction in viral infection at 20 uM after 24 to 72 hrs by FFU assay relative to control; format: functional; design: scale not given: the % may be the effect or the level left
dengue virus type 2 [20] = assay: Antiviral activity against DENV2 infected in human HepG2 cells assessed as reduction in viral infection at 20 uM after 24 to 72 hrs by FFU assay relative to control; format: functional; design: scale not given: the % may be the effect or the level left
dengue virus type 1 [21] = assay: Antiviral activity against DENV1 infected in human HepG2 cells assessed as reduction in viral infection at 20 uM after 24 to 72 hrs by FFU assay relative to control; format: functional; design: scale not given: the % may be the effect or the level left
dengue virus type 4 [22] = assay: Antiviral activity against DENV4 infected in human HepG2 cells assessed as reduction in viral infection at 20 uM after 24 to 72 hrs by FFU assay relative to control; format: functional; design: scale not given: the % may be the effect or the level left
Genome polyprotein [23] = target: T1, Genome polyprotein (dengue virus type 2, UniProt P29990); assay: Inhibition of Dengue virus NS2B-NS3 serine protease expressed in mouse RAW 264.7 cells; format: cell-based
dengue virus type 2 [24] = assay: Antiviral activity against DENV2 infected in mouse RAW 264.7 cells by MTT assay; format: functional, organism-based; details: RAW264.7
dengue virus type 4 [25] = assay: Antiviral activity against DENV4 infected in mouse RAW 264.7 cells by MTT assay; format: functional, organism-based; details: RAW264.7
dengue virus type 1 [26] = assay: Antiviral activity against DENV1 infected in mouse RAW 264.7 cells by MTT assay; format: functional, organism-based; details: RAW264.7
dengue virus type 3 [27] = assay: Antiviral activity against DENV3 infected in mouse RAW 264.7 cells by MTT assay; format: functional, organism-based; details: RAW264.7
dengue virus type 2 [28] = assay: Antiviral activity against DENV2 infected in African green monkey Vero cells assessed as reduction in viral replication after 4 days by qRT-PCR analysis; format: functional, organism-based; details: 96 h
dengue virus type 4 [29] = assay: Antiviral activity against DENV4 infected in African green monkey Vero cells assessed as reduction in viral replication after 4 days by qRT-PCR analysis; format: functional, organism-based; details: 96 h
dengue virus type 3 [30] = assay: Antiviral activity against DENV3 infected in African green monkey Vero cells assessed as reduction in viral replication after 4 days by qRT-PCR analysis; format: functional, organism-based; details: 96 h
Genome polyprotein [31] = target: T1, Genome polyprotein; assay: Inhibition of His-tagged DENV2 NS2B-NS3 serine protease expressed in Escherichia coli BL21 using Boc-Gly-Arg-Arg-7-amino-4-methylcoumarin as substrate measured after 10 mins by fluorometric assay
dengue virus type 1 [32] = assay: Antiviral activity against DENV1 infected in African green monkey Vero cells assessed as reduction in viral replication after 4 days by qRT-PCR analysis; format: functional, organism-based; details: 96 h
dengue virus type 2 [33] = assay: Antiviral activity against DENV2 […] infected in African green monkey Vero cells by qRT-PCR analysis; format: functional, organism-based

T1 sequence (P29990 1346-1475 limits assumed): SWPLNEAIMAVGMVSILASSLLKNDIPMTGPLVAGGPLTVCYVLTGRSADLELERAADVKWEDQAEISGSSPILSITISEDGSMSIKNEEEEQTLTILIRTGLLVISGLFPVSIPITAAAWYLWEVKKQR
T1 sequence (P29990 1476-2093 limits assumed): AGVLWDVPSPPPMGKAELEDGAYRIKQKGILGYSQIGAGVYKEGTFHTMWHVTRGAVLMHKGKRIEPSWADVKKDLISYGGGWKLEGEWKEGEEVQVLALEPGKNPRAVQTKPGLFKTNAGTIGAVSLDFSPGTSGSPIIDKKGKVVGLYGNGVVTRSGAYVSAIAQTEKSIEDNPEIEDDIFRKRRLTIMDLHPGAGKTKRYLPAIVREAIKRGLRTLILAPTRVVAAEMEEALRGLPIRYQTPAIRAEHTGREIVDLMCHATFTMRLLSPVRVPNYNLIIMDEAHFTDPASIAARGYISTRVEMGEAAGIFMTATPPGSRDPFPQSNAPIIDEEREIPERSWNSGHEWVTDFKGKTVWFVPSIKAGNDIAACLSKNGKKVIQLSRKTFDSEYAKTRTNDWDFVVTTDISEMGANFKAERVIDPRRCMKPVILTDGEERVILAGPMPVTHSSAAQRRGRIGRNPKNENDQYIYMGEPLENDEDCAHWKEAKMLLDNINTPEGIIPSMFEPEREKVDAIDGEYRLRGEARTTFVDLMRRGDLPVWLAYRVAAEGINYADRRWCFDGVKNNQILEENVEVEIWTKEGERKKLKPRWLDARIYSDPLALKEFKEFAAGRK

Molecule `COc1ccc2c3ccnc(C)c3n(C)c2c1` has an EC50 (dengue virus type 1 [1]) of 3.2 to 49.5 µM, an EC50 (dengue virus type 4 [2]) of 3.2 to 49.5 µM and an EC50 (dengue virus type 2 [3]) of 3.2 to 49.5 µM. The EC50 (dengue virus type 3 [4]) was 3.2 to 49.5 µM.

`CN1CCN(C2Cc3ccc(F)cc3Sc3ccc(O)cc32)CC1` (stereo not drawn) was tested, and the IC50 (dengue virus type 2 [5]) was 1.2 µM.

With `COc1cc(/C=C/C(=O)CC(=O)/C=C/c2ccc(O)c(OC)c2)ccc1O` [CURCUMIN] the IC50 (dengue virus type 2 [6]) was 11.5 µM.

`O=C1C[C@@H](c2ccc(O)cc2)Oc2cc(O)cc(O)c21` [NARINGENIN] was tested, and the EC50 (dengue virus type 3 [7]) was 35.8 to 178 µM, the EC50 (dengue virus type 2 [8]) was 35.8 to 178 µM and the EC50 (dengue virus type 4 [9]) was 35.8 to 178 µM. It also gave an EC50 (dengue virus type 1 [10]) of 35.8 to 178 µM.

In the case of `O=C1[C@H](CC[C@H](O)c2ccc(F)cc2)[C@@H](c2ccc(O)cc2)N1c1ccc(F)cc1` [EZETIMIBE], the IC50 (dengue virus type 1 [11]) is reported as 13.1 µM.

`COc1ccc([C@@H]2CC(=O)c3c(O)cc(O[C@@H]4O[C@H](CO[C@@H]5OC[C@](O)(CO)[C@H]5O)[C@@H](O)[C@H](O)[C@H]4O)cc3O2)cc1` showed an IC50 (dengue virus type 2 [12]) of 13.1 µg/mL (≈ 22.6 µM).

Molecule `C=C1CC[C@@H]2[C@](C)(CO)[C@H](O)CC[C@@]2(C)[C@@H]1C/C=C1/C(=O)OC[C@H]1O` [ANDROGRAPHOLIDE] has an EC50 (dengue virus type 2 [13]) of 22.7 µM and an EC50 (dengue virus type 2 [14]) of 21.3 µM.

`CC[C@H]1CN2CCc3c([nH]c4ccccc34)[C@H]2C[C@@H]1/C(=C\OC)C(=O)OC` [HIRSUTINE] gave an EC50 (dengue virus type 1 [15]) of 1.9 µM.

`C/C(=C\[C@H](C)C(=O)C[C@H](O)CC1CC(=O)NC(=O)C1)[C@@H]1OC(=O)/C=C/CC/C=C/C=C\[C@@H]1C` [LACTIMIDOMYCIN] was tested, and the EC50 (dengue virus type 2 [16]) was 0.4 µM and the EC50 (dengue virus type 2 [17]) was 0.4 µM.

In the case of `COc1c(O)cc2oc3cc(O)c(CC=C(C)C)c(O)c3c(=O)c2c1CC=C(C)C` [MANGOSTIN], the EC50 (dengue virus type 2 [18]) is reported as 10 µM, the Activity (dengue virus type 3 [19]) is reported as 47 - 55% and the Activity (dengue virus type 2 [20]) is reported as 47 - 55%. For the same molecule, the Activity (dengue virus type 1 [21]) was 47 - 55% and the Activity (dengue virus type 4 [22]) was 47 - 55%.

For `CC(=O)O[C@H]1CC(C)(C)C(=C=C/C(C)=C/C=C/C=C/C=C(C)/C=C2C=C(/C=C/[C@@]34O[C@]3(C)C[C@@H](O)CC4(C)C)C(=O)O/2)[C@](C)(O)C1`, the EC50 (Genome polyprotein [23]) was 8.5 µM, the EC50 (dengue virus type 2 [24]) was 5.84 to 7.62 µM and the EC50 (dengue virus type 4 [25]) was 5.84 to 7.62 µM. For the same molecule, the EC50 (dengue virus type 1 [26]) was 5.84 to 7.62 µM and the EC50 (dengue virus type 3 [27]) was 5.84 to 7.62 µM.

`O=C(Nc1nc2cc(O)c(O)cc2s1)c1ccccc1Sc1ccc(C(F)(F)F)cc1` showed an EC50 (dengue virus type 2 [28]) of 0.1 µM, an EC50 (dengue virus type 4 [29]) of 0.1 µM and an EC50 (dengue virus type 3 [30]) of 0.1 µM. For the same molecule, the IC50 (Genome polyprotein [31]) was 3.6 µM and the EC50 (dengue virus type 1 [32]) was 0.1 to 3 µM.

Work on `CC[C@@H]([C@H](C)O)n1ncn(-c2ccc(N3CCN(c4ccc(OC[C@@H]5CO[C@@](Cn6cncn6)(c6ccc(F)cc6F)C5)cc4)CC3)cc2)c1=O` [POSACONAZOLE] yielded an EC50 (dengue virus type 2 [33]) of 4.1 µM.
